# How the values were obtained:
# Septoria tritici = experiment: Activity against the Septoria leaf blotch pathogen Septoria tritici in the microtiter test (M2 / C2); format: cell-based; details: comparison with the prior art, day 7
# Method: (§1) Leaves of soybean seedlings grown in pots were inoculated with a spore suspension of soybean rust (Phakopsora pachyrhizi). The pots were then placed in a chamber of high atmospheric humidity (90 to 95%) and 23 to 27° C. for 24 hours. During this time, the spores germinated and the germ tubes penetrated into the leaf tissue. The infected plants were then cultivated further in a greenhouse at temperatures between 23 and 27° C. and 60 to 80% relative atmospheric humidity. After two days, the plants were sprayed to runoff point with the active compound solution described above at the active compound concentration indicated below. After the spray coating had dried on, the test plants were cultivated in a greenhouse at temperatures between 23 and 27° C. and 60 to 80% relative atmospheric humidity for a further 10 days. The extent of the rust fungus development on the leaves was then determined visually in % of infection. […] B) Micro test The active compounds were formulated separately as a stock solution having a concentration of 10 000 ppm in DMSO.
# The stock solution was pipetted into a microtiter plate (MTP) and diluted with water to the stated active compound concentration. […] Using an absorption photometer, the MTPs were measured at 405 nm on day 7 after the inoculation. The measured parameters were compared to the growth of the active compound-free control variant (100%) and the fungus- and active compound-free blank value to determine the relative growth in % of the pathogens in the individual active compounds. […]
# (§2) The active compounds were formulated separately as a stock solution having a concentration of 10 000 ppm in DMSO. […] Using an absorption photometer, the MTPs were measured at 405 nm on day 7 after the inoculation. The measured parameters were compared to the growth of the active compound-free control variant and the fungus- and active compound-free blank value to determine the relative growth in % of the pathogens in the individual active compounds. […] […]
# Botrytis cinerea = experiment: Activity against the gray mold pathogen Botrytis cinerea in the microtiter test (M1 / C1); format: cell-based; details: comparison with the prior art, day 7
# Method: as §1
# The stock solution was pipetted into a microtiter plate (MTP) and diluted with water to the stated active compound concentration. […] Using an absorption photometer, the MTPs were measured at 405 nm on day 7 after the inoculation. The measured parameters were compared to the growth of the active compound-free control variant and the fungus- and active compound-free blank value to determine the relative growth in % of the pathogens in the individual active compounds.
# as §2
SMILES,Growth (%) at 31 ppm of C2 (Septoria tritici) [%],Growth (%) at 31 ppm of C1 (Botrytis cinerea) [%]
CC(C)(C)C(O)C(CCc1ccccc1)n1cncn1 (stereo not drawn) [reference compound],100,81
Cc1ccc(CCC(C(O)C(C)(C)C)n2cncn2)cc1 (stereo not drawn),4,4
Cc1ccc(C(C)CC(C(O)C(C)(C)C)n2cncn2)cc1 (stereo not drawn),3,0

# Source: patent US20110172098A1, “Imidazole and Triazole Compounds, Their Use and Agents Containing the Same” (priority 2008, published 2011)
